Values of other authors as cited in PubChem BioAssay AID1259409 (Chemical Carcinogenesis Research Information System (CCRIS), 2018).
Where a SMILES comes first, the peptide text is derived from it. Bridges are numbered along the chain shown (N, C = ends). [ ]: non-standard residue; d: D form.

System: rodent chemically induced tumor inhibition, incidence and multiplicity
Assay: CCRIS tumor inhibitor studies

## CC(C)[C@@H]1NC(=O)[C@H](CCCCN)NC(=O)[C@@H](Cc2c[nH]c3ccccc23)NC(=O)[C@H](Cc2ccc(O)cc2)NC(=O)[C@@H](NC(=O)[C@H](N)Cc2ccccc2)CSSC[C@@H](C(=O)N[C@@H](Cc2c[nH]c3ccccc23)C(N)=O)NC1=O (H-[dF]CY[dW]KVCW-NH2; disulfide 2-7)
Carcinogen: N-BUTYL-N-(4-HYDROXYBUTYL)NITROSAMINE, 3817-11-6, Dose [Inhibitor]: 0, 50 UG/RAT/D FOR 12 WK BEGINNING POST CARCINOGEN TREATMENT (STUDY DURATION: 17 WK), Route [Inhibitor]: SUBCUTANEOUS, Species: RAT, Strain/Sex: F344/FEMALE, Target Tissue: Type of Lesion: URINARY BLADDER: CARCINOMA IN SITU, Dose [Carcinogen]: 0.05% IN DRINKING WATER FOR 4 WK, Promoter: MITOMYCIN C, 50-07-7
  tumour outcome (control, treated, inhibition, significance): 10/40 (25%), 1/20 (5%), 80%, p<0.001
Carcinogen: N-BUTYL-N-(4-HYDROXYBUTYL)NITROSAMINE, 3817-11-6, Dose [Inhibitor]: 0, 50 UG/RAT/D FOR 12 WK BEGINNING POST CARCINOGEN TREATMENT (STUDY DURATION: 17 WK), Route [Inhibitor]: SUBCUTANEOUS, Species: RAT, Strain/Sex: F344/FEMALE, Target Tissue: Type of Lesion: URINARY BLADDER: INVASIVE CARCINOMA, Dose [Carcinogen]: 0.05% IN DRINKING WATER FOR 4 WK, Promoter: MITOMYCIN C, 50-07-7
  tumour outcome (control, treated, inhibition, significance): 12/40 (30%), 0/20 (0%), 100%, not calculated
Carcinogen: N-BUTYL-N-(4-HYDROXYBUTYL)NITROSAMINE, 3817-11-6, Dose [Inhibitor]: 0, 50 UG/RAT/D FOR 12 WK BEGINNING POST CARCINOGEN TREATMENT (STUDY DURATION: 17 WK), Route [Inhibitor]: SUBCUTANEOUS, Species: RAT, Strain/Sex: F344/FEMALE, Target Tissue: Type of Lesion: URINARY BLADDER: PAPILLOMA, Dose [Carcinogen]: 0.05% IN DRINKING WATER FOR 4 WK, Promoter: MITOMYCIN C, 50-07-7
  tumour outcome (control, treated, inhibition, significance): 20/40 (50%), 11/20 (55%), -10%, not significant
Carcinogen: N-NITROSOBIS(2-OXOPROPYL)AMINE, 60599-38-4, Dose [Inhibitor]: 0, 35 UG/D FROM OSMOTIC PUMP FOR 2 MO, Route [Inhibitor]: SUBCUTANEOUS IMPLANT, Species: HAMSTER, Strain/Sex: SYRIAN/FEMALE, Target Tissue: Type of Lesion: PANCREAS: ADENOCARCINOMA, Promoter: NONE USED
  tumour outcome (control, treated, inhibition, significance): 12/12 (100%), 6/11 (55%), 45%, not calculated

## CC1=CC(=O)c2c(O)cccc2C1=O
Carcinogen: AZOXYMETHANE [25843-45-2], Dose [Inhibitor]: 200 PPM IN DIET FOR 4 WK BEGINNING 1 WK PRIOR TO FIRST CARCINOGEN DOSE (STUDY DURATION: 35 WK), Route [Inhibitor]: ORAL, Species: RAT, Strain/Sex: F344/MALE, Target Tissue: Type of Lesion: COLON: ADENOMA, Dose [Carcinogen]: 15 MG/KG BW 1X/WK FOR 3 WK (STUDY DURATION: 35 WK), Promoter: NONE
  tumour outcome (control, treated, inhibition, significance): 6/28 (21%), 3/29 (10%), 52%, not significant
Carcinogen: AZOXYMETHANE [25843-45-2], Dose [Inhibitor]: 200 PPM IN DIET FOR 4 WK BEGINNING 1 WK PRIOR TO FIRST CARCINOGEN DOSE (STUDY DURATION: 35 WK), Route [Inhibitor]: ORAL, Species: RAT, Strain/Sex: F344/MALE, Target Tissue: Type of Lesion: COLON: CARCINOMA, Dose [Carcinogen]: 15 MG/KG BW 1X/WK FOR 3 WK (STUDY DURATION: 35 WK), Promoter: NONE
  tumour outcome (control, treated, inhibition, significance): 8/28 (29%), 8/29 (28%), 3%, not significant
Carcinogen: AZOXYMETHANE [25843-45-2], Dose [Inhibitor]: 200 PPM IN DIET FOR 4 WK BEGINNING 1 WK PRIOR TO FIRST CARCINOGEN DOSE (STUDY DURATION: 35 WK), Route [Inhibitor]: ORAL, Species: RAT, Strain/Sex: F344/MALE, Target Tissue: Type of Lesion: SMALL INTESTINE: CARCINOMA, Dose [Carcinogen]: 15 MG/KG BW 1X/WK FOR 3 WK (STUDY DURATION: 35 WK), Promoter: NONE
  tumour outcome (control, treated, inhibition, significance): 7/28 (25%), 3/29 (10%), 60%, not significant

## CC(C)(C)N=C=O
Carcinogen: 7,12-DIMETHYLBENZ(A)ANTHRACENE, 57-97-6, Dose [Inhibitor]: 0.013 MMOL/G IN DIET BEGINNING 1 WK AFTER CARCINOGEN ADMINISTRATION (STUDY DURATION: 23 WK), Route [Inhibitor]: ORAL, Species: RAT, Strain/Sex: SPRAGUE-DAWLEY/FEMALE, Target Tissue: Type of Lesion: MAMMARY GLAND: TUMOR, Dose [Carcinogen]: 12 MG DMBA IN 1.0 ML OLIVE OIL ONCE, Promoter: NONE USED
  tumour outcome (control, treated, inhibition, significance): 100%, 50%, 50%, p<0.001

## CC(C)=CCCC(C)CCO (configuration not stated)
Carcinogen: AZOXYMETHANE, 25843-45-2, Dose [Inhibitor]: 0, 5 MG/G IN DIET FOR 22 WK BEGINNING 3 D POST LAST CARCINOGEN DOSE (STUDY DURATION: 25 WK), Route [Inhibitor]: ORAL, Species: RAT, Strain/Sex: F344/MALE, Target Tissue: Type of Lesion: DUODENUM: ADENOCARCINOMA, Dose [Carcinogen]: 15 MG/KG BW 2/WK FOR 3 WK, Promoter: NONE USED
  tumour outcome (control, treated, inhibition, significance): 50%, 26%, 48%, not significant
Carcinogen: AZOXYMETHANE, 25843-45-2, Dose [Inhibitor]: 0, 5 MG/G IN DIET FOR 22 WK BEGINNING 3 D POST LAST CARCINOGEN DOSE (STUDY DURATION: 25 WK), Route [Inhibitor]: ORAL, Species: RAT, Strain/Sex: F344/MALE, Target Tissue: Type of Lesion: LARGE BOWEL: ADENOMATOUS POLYP, Dose [Carcinogen]: 15 MG/KG BW 2/WK FOR 3 WK, Promoter: NONE USED
  tumour outcome (control, treated, inhibition, significance): 82%, 69%, 16%, not significant

## COc1ccc(C(c2ccc(OC)cc2)C(Cl)(Cl)Cl)cc1
Carcinogen: N-NITROSOBIS(2-HYDROXYPROPYL)AMINE, 53609-64-6, Dose [Inhibitor]: 0, 1000 PPM IN DIET FOR 27 WK BEGINNING 9 WK POST CARCINOGEN TREATMENT (STUDY DURATION: 37 WK), Route [Inhibitor]: ORAL, Species: RAT, Strain/Sex: F344/FEMALE, Target Tissue: Type of Lesion: THYROID GLAND: ADENOMA, Dose [Carcinogen]: 2000 MG/KG BW 1 WK POST BILATERAL OVARIECTOMY, Promoter: SULFADIMETHOXINE, 122-11-2
  outcome: 0/12 (0%), 2/15 (13%), not significant
Carcinogen: N-NITROSOBIS(2-HYDROXYPROPYL)AMINE, 53609-64-6, Dose [Inhibitor]: 0, 1000 PPM IN DIET FOR 27 WK BEGINNING 9 WK POST CARCINOGEN TREATMENT (STUDY DURATION: 37 WK), Route [Inhibitor]: ORAL, Species: RAT, Strain/Sex: F344/FEMALE, Target Tissue: Type of Lesion: THYROID GLAND: CARCINOMA, Dose [Carcinogen]: 2000 MG/KG BW 1 WK POST BILATERAL OVARIECTOMY, Promoter: SULFADIMETHOXINE, 122-11-2
  tumour outcome (control, treated, inhibition, significance): 10/12 (83%), 6/15 (40%), 52%, p<0.05

## c1cnc2c(c1)ccc1cccnc12
Dose [Inhibitor]: 0, 15 MG/KG BW EVERY OTHER DAY BEGINNING 1 WK AFTER CARCINOGEN DOSING THROUGH WK 52 WK (STUDY DURATION: 52 WK), Route [Inhibitor]: INTRAPERITONEAL, Species: RAT, Strain/Sex: WISTAR/MALE, Target Tissue: Type of Lesion: STOMACH: ADENOCARCINOMA, Dose [Carcinogen]: 25 UG/ML IN DRINKING WATER FOR 25 WK, Promoter: SODIUM CHLORIDE (7647-14-5)
  tumour outcome (control, treated, inhibition, significance): 19/20 (95%), 9/20 (45%), 53%, p< 0.001
Dose [Inhibitor]: 0, 30 MG/KG BW EVERY OTHER DAY BEGINNING 1 WK AFTER CARCINOGEN DOSING THROUGH WK 52 WK (STUDY DURATION: 52 WK), Route [Inhibitor]: INTRAPERITONEAL, Species: RAT, Strain/Sex: WISTAR/MALE, Target Tissue: Type of Lesion: STOMACH: ADENOCARCINOMA, Dose [Carcinogen]: 25 UG/ML IN DRINKING WATER FOR 25 WK, Promoter: SODIUM CHLORIDE (7647-14-5)
  tumour outcome (control, treated, inhibition, significance): 19/20 (95%), 7/20 (35%), 63%, p< 0.01

## O=CCc1c[nH]c2ccccc12
Carcinogen: 7,12-DIMETHYLBENZ[A]ANTHRACENE, 57-97-6, Dose [Inhibitor]: 0.1 MMOL IN 1 ML DIMETHYL SULFOXIDE ONCE 20 HR PRIOR TO CARCINOGEN ADMINISTRATION FOLLOWED BY A 14 WK OBSERVATION PERIOD, Route [Inhibitor]: GAVAGE, Species: RAT, Strain/Sex: SPRAGUE-DAWLEY/FEMALE, Target Tissue: Type of Lesion: MAMMARY GLAND: TUMOR, Dose [Carcinogen]: 12 MG IN 1 ML OLIVE OIL ONCE, Promoter: NONE USED
  tumour outcome (control, treated, inhibition, significance): 64%, 36%, 44%, not significant

## C=C(CC[C@@H](C(=O)O)[C@H]1[C@H](O)C[C@@]2(C)C3=C(CC[C@]12C)[C@@]1(C)CC[C@H](OC(C)=O)C(C)(C)[C@@H]1CC3)C(C)C
Carcinogen: 7,12-DIMETHYLBENZ[A]ANTHRACENE, 57-97-6, Dose [Inhibitor]: 0, 0.2 UMOL 2/WK FOR 19 WK BEGINNING 1 WK POST CARCINOGEN DOSE (STUDY DURATION: 20 WK), Route [Inhibitor]: DERMAL, Species: MOUSE, Strain/Sex: ICR, Target Tissue: Type of Lesion: SKIN: PAPILLOMA, Dose [Carcinogen]: 50 UG ONCE, Promoter: 12-O-TETRADECANOYLPHORBOL-13-ACETATE, 16561-29-8
  tumour outcome (control, treated, inhibition, significance): 73%, 25%, 66%, not calculated
Carcinogen: 7,12-DIMETHYLBENZ[A]ANTHRACENE, 57-97-6, Dose [Inhibitor]: 0, 0.2 UMOL IN 100 µL ACETONE:DMSO (9:1) 2/WK FOR 20 WK APPLIED 30 MIN PRIOR TO EACH CARCINOGEN DOSE (STUDY DURATION: 20, Route [Inhibitor]: DERMAL, Species: MOUSE, Strain/Sex: ICR/FEMALE, Target Tissue: Type of Lesion: SKIN: PAPILLOMA, Dose [Carcinogen]: 50 UG IN 100 µL ACETONE ONCE, Promoter: 12-O-TETRADECANOYLPHORBOL-13-ACETATE, 16561-29-8
  tumour outcome (control, treated, inhibition, significance): 73%, 27%, 63%, p<0.01
